Measured values published in patent US20140171475A1, “ANIMAL ECTOPARASITE-CONTROLLING AGENT” (SUMITOMO CHEMICAL COMPANY, LIMITED, priority 2011, published 2014).
Where two headings read alike, the source gives them in different places.

Experiments:
Assay type in all cases: in vivo
[1] = test system: Haemaphysalis longicornis (non-blood-fed young ticks); test: Pesticidal activity on ticks, dry film contact application test; conditions: 48 h
Method: Any one of the present benzylamide compounds (12), (13), (15), (28), (29), (30), (31), (32), (33), (34), (37) and (38) (16 μg) was dissolved in acetone (0.2 mL), and into a screw bottle (20 mL volume) this solution was dropwised and capped the bottle. Then the capped-bottle was made rolling so that the inner-surface of the screw bottle was uniformly coated with the solution. The acrew bottle was capped off and allowed to dry up for 2 hours. Into the screw bottle, test ticks (Haemaphysalis longicornis, non-blood-fed young ticks, 10 ticks/group) were added, and capped the bottle. Two (2) days later, the number of dead ticks was examined and the mortality was calculated by the following formula:
Mortality (%)=100×(number of dead ticks/number of ticks tested)

[2] = test system: Haemaphysalis longicornis (young ticks) on mouse; test: Dropping application against mouse-infested ticks; conditions: topical, 48 h, 0.1% w/v solution, 200 μL dropwise to whole body surface of mouse, 2 days after application, read-out: Mortality
Method: The previous day of a dropping application, 30 test ticks (Haemaphysalis longicornis, young ticks) were deposited on a mouse. Before the dropping application, uninfested ticks were removed.
Any one of the present benzylamide compounds (12), (13), (15), (28), (29), (30), (31), (32), (33), (34), (36), (37) and (38) (5 mg) was dissolved in a mixture (5 mL) of propylene carbonate and diethylene glycol monoethyl ether in equal volume to prepare a 0.1% w/v solution. Said solution (200 μL) was applied dropwise to the whole body surface of a mouse with a pipette. To a control group, the mixture (200 μL) alone was applied. Said application was repeated 3 times per group.
Two (2) days after the application, the number of dead ticks was examined and the mortality was calculated by the following formula:
Mortality (%)=100×(number of dead ticks/infested ticks before dropping application)

[3] = test system: Ctenocephalides felis fleas on cat; test: Dropping application against cat-infested fleas
Method: The previous day of a dropping application, 50 test fleas (Ctenocephalides felis, adult ticks) were deposited on a cat. Before the dropping application, infested flaes were counted.
(§1) Each of the present benzylamide compound (13) (specified weight: 0.375 g, 0.75 g and 1.5 g) was dissolved in diethylene glycol monoethyl ether (6.0 g) to prepare a test solution. Said test solution was directly dropped on the skin of the neck and back of the cat while pushing aside fur thereon at a rate of 0.1 ml per 1 kg of the cat's body weight (dose amount: 5 mg/kg, 10 mg/kg and 20 mg/kg). This is referred to as a test group. On the other hand, diethylene glycol monoethyl ether alone was applied dropwise to a placebo group.
Two (2) days after the application, the number of living fleas, which were infesting the cats, was examined. When the examination was completed, all infested fleas were removed from the cats.
(§2) Both of 14 days and 28 days after the application, 50 test fleas (Ctenocephalides felis, adult ticks) were repeatedly deposited on a cat respectively. Two (2) days after the repeated deposition, the number of living ticks, which were infesting the […], was examined respectively. When each of the examination was completed, all infested ticks were removed from the dogs.
(§3) The infestation rate and control rate were calculated by the following formulae: […]
(§4) Method of calculating infestation rate and control rate at the initial stage (2 days) after the application:
Infestation rate (%) at X days after application=(number of living fleas at X days/number of living fleas before application)×100
(§5) Control rate (%) at X days after application {(infestation rate of test group before application infestation rate of test group at X days)/infestation rate of test group before application}×100
(§6) Method of calculating infestation rate and control rate at both 16 days and 30 days after the application:
Infestation rate (%) at X days after application=(number of living fleas at X days/number of living fleas repeatedly deposited)×100
Control rate (%) at X days after application {(infestation rate of placebo group at X days−infestation rate of test group at X days)/infestation rate of placebo group after X days}×100
In addition, if an infestation rate of a test group is higher than a placebo group, then the control rate is deemed to be 0%.

[4] = test system: Ctenocephalides felies fleas on mouse; test: Oral administration against mouse-infested fleas; conditions: test solution 20 mg/10 mL at 10 mL per 1 kg mouse body weight, 2 days after flea deposition
Method: (§7) The present benzylamide compound (13) (20 mg) was dissolved in dimethylformamide (680 mg), and thereto a corn oil was added to prepare a test solution (10 mL). Said test solution was orally administered to the mouse at the rate of 10 mL per 1 kg of the body weight of the mouse with a gastric sonde. To a control group, a 7% dimethylformamide/corn oil solution alone was orally administered. Each administration was repeated 3 times per group. After the administration, 20 test fleas (Ctenocephalides felies) were deposited on a mouse.
Two (2) days after the deposition, the number of dead fleas was examined and the mortality was calculated by the following formula:
Mortality (%)=100×(number of dead fleas/number of fleas tested)

[5] = test system: Haemaphysalis longicornis (young ticks) on dog (beagle); test: Oral administration against dog-infested ticks; conditions: oral gelatin capsule 40 mg/kg
Method: The previous day of an oral administration, 100 test ticks (Haemaphysalis longicornis, young ticks) were deposited on a dog (beagle). Before the oral administration, infested ticks were counted.
A gelatin capsule in which the present benzylamide compound (13) was filled into a gelatin capsule so that the amount of the present benzylamide compound […] administered was 40 mg per 1 kg of the dog's body weight was orally administered to the dog conpulsively. This is referred to as a test group. On the other hand, a geratin capsule alone was orally administered to a placebo group.
Two (2) days after the oral administration, the number of living ticks, which were infesting the dogs, was examined. When the examination was completed, all infested ticks were removed from the dogs.
as §3, §4
(§8) Infestation rate (%) at X days after application=(number of living ticks at X days/number of living ticks before application)×100
Control rate (%) at X days after application {(infestation rate of test group before application−infestation rate of test group at X days)/infestation rate of test group before application}×100 […]

[6] = test system: Haemaphysalis longicornis (young ticks) on dog (beagle); test: Dropping application against dog-infested ticks; conditions: dropping application 20 mg/kg
Method: The previous day of a dropping application, 100 test ticks (Haemaphysalis longicornis, young ticks) were deposited on a dog (beagle). Before the dropping application, infested ticks were counted.
as §1, with “The” for “Each of the”, “[…]” for “benzylamide”, “(1.5” for “(specified weight: 0.375 g, 0.75 g and 1.5”, “dog” for “cat”, “dog's” for “cat's”, “amount:” for “amount: 5 mg/kg, 10 mg/kg and”
Two (2) days after the application, the number of living ticks, which were infesting the dogs, was examined. When the examination was completed, all infested ticks were removed from the dogs.
as §2, with “of […] (14)” for “of 14”, “application, 100” for “application, 50”, “test ticks (Haemaphysalis longicornis, young” for “test fleas (Ctenocephalides felis, adult”, “a dog (beagle)” for “a cat”
as §3, §4, §8, §5, §6
Infestation rate (%) at X days after application=(number of living ticks at X days/number of living ticks repeatedly deposited)×100 […]

[7] = test system: Haemaphysalis longicornis (young ticks) on mouse; test: Oral administration against mouse-infested ticks; conditions: test solution 20 mg/10 mL at 10 mL per 1 kg mouse body weight, 2 days after administration
Method: The previous day of an oral administration, 30 test ticks (Haemaphysalis longicornis, young ticks) were deposited on a mouse. Before the oral administration, uninfested ticks were removed.
as §7, with “group.” for “group. After the administration, 20 test fleas (Ctenocephalides felies) were deposited on a mouse.”
Two (2) days after the administration, the number of dead ticks was examined and the mortality was calculated by the following formula:
Mortality (%)=100×(number of dead ticks/infested ticks before oral administration)

[8] = 16 μg as dry film on inner surface of 20 mL screw bottle, 2 days later, read-out: Mortality

## O=C(NCc1cc(C2=NOC(c3cc(Cl)cc(Cl)c3)(C(F)(F)F)C2)ccc1Cl)C1CCCC1 (stereo not drawn) [(38), N-{2-chloro-[5-(3,5-dichlorophenyl)-5-trifluoromethyl-4,5-dihydroisoxazol-3-yl]benzyl}cyclopentanecarboxamide]
[1]; [8]
  mortality at 16 µg/bottle: ≥ 90%
[2]
  pest or weed control at 0.1 % strength: ≥ 60%

## CC(C)C(=O)NCc1cc(C2=NOC(c3cc(Cl)cc(Cl)c3)(C(F)(F)F)C2)ccc1Cl (stereo not drawn) [(31), N-{2-chloro-[5-(3,5-dichlorophenyl)-5-trifluoromethyl-4,5-dihydroisoxazol-3-yl]benzyl}isobutyramide]
[1]; [8]
  mortality at 16 µg/bottle: ≥ 90%
[2]
  pest or weed control at 0.1 % strength: ≥ 60%

## O=C(NCc1cc(C2=NOC(c3cc(Cl)cc(Cl)c3)(C(F)(F)F)C2)ccc1Cl)C(F)(F)F (stereo not drawn) [(36), N-{2-chloro-[5-(3,5-dichlorophenyl)-5-trifluoromethyl-4,5-dihydroisoxazol-3-yl]benzyl}trifluoroacetamide]
[2]
  pest or weed control at 0.1 % strength: ≥ 60%

## COCC(=O)NCc1cc(C2=NOC(c3cc(Cl)cc(Cl)c3)(C(F)(F)F)C2)ccc1Cl (stereo not drawn) [(30), N-{2-chloro-[5-(3,5-dichlorophenyl)-5-trifluoromethyl-4,5-dihydroisoxazol-3-yl]benzyl}methoxyacetamide]
[1]; [8]
  mortality at 16 µg/bottle: ≥ 90%
[2]
  pest or weed control at 0.1 % strength: ≥ 60%

## O=C(NCc1cc(C2=NOC(c3cc(Cl)cc(Cl)c3)(C(F)(F)F)C2)ccc1Cl)C1CCC1 (stereo not drawn) [(37), N-{2-chloro-[5-(3,5-dichlorophenyl)-5-trifluoromethyl-4,5-dihydroisoxazol-3-yl]benzyl}cyclobutanecarboxamide]
[1]; [8]
  mortality at 16 µg/bottle: ≥ 90%
[2]
  pest or weed control at 0.1 % strength: ≥ 60%

## CC(=O)NCc1cc(C2=NOC(c3cc(Cl)cc(Cl)c3)(C(F)(F)F)C2)ccc1Cl (stereo not drawn) [(28), N-{2-chloro-[5-(3,5-dichlorophenyl)-5-trifluoromethyl-4,5-dihydroisoxazol-3-yl]benzyl}acetamide]
[1]; [8]
  mortality at 16 µg/bottle: ≥ 90%
[2]
  pest or weed control at 0.1 % strength: ≥ 60%

## N#CCC(=O)NCc1cc(C2=NOC(c3cc(Cl)cc(Cl)c3)(C(F)(F)F)C2)ccc1Cl (stereo not drawn) [(34), N-{2-chloro-[5-(3,5-dichlorophenyl)-5-trifluoromethyl-4,5-dihydroisoxazol-3-yl]benzyl}cyanoacetamide]
[1]; [8]
  mortality at 16 µg/bottle: ≥ 90%
[2]
  pest or weed control at 0.1 % strength: ≥ 60%

## CCCC(=O)NCc1cc(C2=NOC(c3cc(Cl)cc(Cl)c3)(C(F)(F)F)C2)ccc1Cl (stereo not drawn) [(32)]
[1]; [8]
  mortality at 16 µg/bottle: ≥ 90%
[2]
  pest or weed control at 0.1 % strength: ≥ 60%

## O=C(CCC(F)(F)F)NCc1cc(C2=NOC(c3cc(Cl)cc(Cl)c3)(C(F)(F)F)C2)ccc1Cl (stereo not drawn) [(29), N-{2-chloro-[5-(3,5-dichlorophenyl)-5-trifluoromethyl-4,5-dihydroisoxazol-3-yl]benzyl}-4,4,4-trifluorobutanamide]
[1]; [8]
  mortality at 16 µg/bottle: ≥ 90%
[2]
  pest or weed control at 0.1 % strength: ≥ 60%

## CC(C)CC(=O)NCc1cc(C2=NOC(c3cc(Cl)cc(Cl)c3)(C(F)(F)F)C2)ccc1Cl (stereo not drawn) [(33), N-{2-chloro-[5-(3,5-dichlorophenyl)-5-trifluoromethyl-4,5-dihydroisoxazol-3-yl]benzyl}isovaleramide]
[1]; [8]
  mortality at 16 µg/bottle: ≥ 90%
[2]
  pest or weed control at 0.1 % strength: ≥ 60%

## O=C(NCc1cc(C2=NOC(c3cc(Cl)cc(Cl)c3)(C(F)(F)F)C2)ccc1Cl)C1CC1 (stereo not drawn) [Compound (13)]
[3]; dropping application 5 mg/kg, 2 days
  Flea control rate (%) at X days after the application: 92%
[3]; dropping application 5 mg/kg, 16 days
  Flea control rate (%) at X days after the application: 97%
[3]; dropping application 5 mg/kg, 30 days
  Flea control rate (%) at X days after the application: 97%
[3]; dropping application 10 mg/kg, 2 days
  Flea control rate (%) at X days after the application: 100%
[3]; dropping application 10 mg/kg, 16 days
  Flea control rate (%) at X days after the application: 100%
[3]; dropping application 10 mg/kg, 30 days
  Flea control rate (%) at X days after the application: 100%
[3]; dropping application 20 mg/kg, 2 days
  Flea control rate (%) at X days after the application: 100%
[3]; dropping application 20 mg/kg, 16 days
  Flea control rate (%) at X days after the application: 100%
[3]; dropping application 20 mg/kg, 30 days
  Flea control rate (%) at X days after the application: 100%
[4]
  Mortality: ≥ 70%
[5]
  Tick control rates (%) at 2 days after the administration: 91%
[6]; 2 days
  Tick control rates (%) at X days after the application, X = 2 (days): 35%
[6]; 16 days (re-infested at 14 days)
  Tick control rates (%) at X days after the application, X = 16 (days): 100%
[6]; 30 days (re-infested at 28 days)
  Tick control rates (%) at X days after the application, X = 30 (days): 100%
[1]
  mortality at 16 µg/bottle: ≥ 90%
[7]
  Mortality: ≥ 70%
[2]
  pest or weed control at 0.1 % strength: ≥ 60%
